Measured values taken from patent publication US8247211B2, “Glycopeptide antibiotics” (American Cyanamid Company, priority 2001, dated 2012).

Tests used:
[1] = Anatomic pathology (heart and kidney histopathology) in mice; format: in vivo, CD-1 mice; conditions: 20 mg/kg intravenously daily for 9 days, microscopic histopathology on day 10
Procedure: 20-day-old CD-1 mice were divided into a vehicle control group (5 mice) and a treatment group (5 mice). Samples of glycopeptide antibiotics were administered at 20 mg/kg intravenously daily for 9 days.
Samples of tissues from necropsied mice were formalin-fixed, paraffin-embedded, sectioned, stained with hematoxylin and eosin, and examined microscopically. Histopathologic findings were recorded. These findings were subjectively graded on a scale corresponding to slight, mild, moderate, marked and severe as compared to untreated controls.

[2] = tested on: Staphylococcus aureus-SMITH (GC 4543); test: Acute lethal infection in mice (ED50); format: in vivo; conditions: female CD-1 mice, intraperitoneal challenge, intravenous dose 30 min. after infection, 7 day survival ratios
Procedure, shortened: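 Female CD-1 mice (20 ± 1-2 g) were infected intraperitoneally with enough bacteria, suspended in Trypticase Soy Broth or hog gastric mucin, to kill untreated controls within 24-48 hr. Compound in saline or 5% dextrose was given intravenously 30 min after infection. ED50 came from pooled 7-day survival over 3 tests.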

CN=C1N(C)CC(C(O)C2NC(=O)C(Cc3ccc(OC4OC(CO)C(OC5OC(CO)C(O)C(O)C5O)C(O)C4O)cc3)NC(=O)C(C(C)c3ccccc3)NC(=O)CNC(=O)C(CO)NC(=O)C(C(O)C3CN(C)C(=NC)N3C3OC(CO)C(O)C(O)C3O)NC2=O)N1C (stereo not drawn) [Example 64, Cyclo[glycyl-β-methylphenylalanyl-O-(4-O-hexopyranosylhexopyranosyl)tyrosyl-3-(1,3-dimethyl-2-(methylimino)imidazolidin-4-yl)seryl-3-[3-hexopyranosyl-1-methyl-2-(methylimino)imidazolidin-4-yl]-serylseryl]]
Anatomical Pathology (Day 10), Heart [1]: 0 | Anatomical Pathology (Day 10), Kidney [1]: 0 | median effective dose (ED50), Staphylococcus aureus-SMITH (GC 4543) [2]: >8

CC(c1ccccc1)C1NC(=O)CNC(=O)C(CO)NC(=O)C(C(O)C2CN(Cc3ccc(C(=O)O)cc3)C(=N)N2C2OC(CO)C(O)C(O)C2O)NC(=O)C(C(O)C2CNC(=N)N2)NC(=O)C(Cc2ccc(OC3OC(CO)C(OC4OC(CO)C(O)C(O)C4O)C(O)C3O)cc2)NC1=O (stereo not drawn) [Example 69, Cyclo[glycyl-β-methylphenylalanyl-O-(4-O-hexopyranosylhexopyranosyl)tyrosyl-3-(2-iminoimidazolidin-4-yl)seryl-3-[1-(4-carboxybenzyl)-2-imino-3-hexopyranosylimidazolidin-4-yl]-serylseryl]]
Anatomical Pathology (Day 10), Heart [1]: 0 | Anatomical Pathology (Day 10), Kidney [1]: 0 | median effective dose (ED50), Staphylococcus aureus-SMITH (GC 4543) [2]: >8

CCCCCCCN1CC(C(O)C2NC(=O)C(C(O)C3CNC(=N)N3)NC(=O)C(Cc3ccc(OC4OC(CO)C(OC5OC(CO)C(O)C(O)C5O)C(O)C4O)cc3)NC(=O)C(C(C)c3ccccc3)NC(=O)CNC(=O)C(CO)NC2=O)N(C2OC(CO)C(O)C(O)C2O)C1=N (stereo not drawn) [Example 71, Cyclo[glycyl-β-methylphenylalanyl-O-(4-O-hexopyranosylhexopyranosyl]tyrosyl-3-(2-iminoimidazolidin-4-yl)seryl-3-[1-heptyl-3-hexopyranosyl-2-iminoimidazolidin-4-yl]serylseryl]]
Anatomical Pathology (Day 10), Heart [1]: 0 | Anatomical Pathology (Day 10), Kidney [1]: 0 | median effective dose (ED50), Staphylococcus aureus-SMITH (GC 4543) [2]: >8
